Test results reported in US8901130B2, “Low hygroscopic aripiprazole drug substance and processes for the preparation” (Ostuka Pharmaceutical Co., Ltd., priority 2001, dated 2014).

Assay: Hygroscopicity test (60° C./100% RH, 24 hours, Karl Fischer water content)
Type: physicochemical
Conditions: 24 hours in dessicator at humidity 100%, temperature 60° C.
Method: (7) Hygroscopicity Test Method
One g of the sample was accurately weighed, in a weighing bottle (diameter 5 cm), covered with kimwipes and left to rest in a 60° C./100% RH environment (water/dessicator). 24 hours later, the weighing bottle was removed, transferred to an environment of a room temperature and about 30% RH (magnesium chloride hexahydrate saturated water solution/dessicator) and left, to rest for 24 hours and the water content of the sample was measured by the Karl Fischer method.

Structure (SMILES)	Moisture Content After 24 hrs (%)
O=C1CCc2ccc(OCCCCN3CCN(c4cccc(Cl)c4Cl)CC3)cc2N1 [Example 10, aripiprazole]	0.05%
O=C1CCc2ccc(OCCCCN3CCN(c4cccc(Cl)c4Cl)CC3)cc2N1 [Example 9, aripiprazole]	0.01%
O=C1CCc2ccc(OCCCCN3CCN(c4cccc(Cl)c4Cl)CC3)cc2N1 [Example 8, aripiprazole]	0.03%
O=C1CCc2ccc(OCCCCN3CCN(c4cccc(Cl)c4Cl)CC3)cc2N1 [Example 4, aripiprazole]	0.02%
O=C1CCc2ccc(OCCCCN3CCN(c4cccc(Cl)c4Cl)CC3)cc2N1 [Example 2, aripiprazole]	0.04%
O=C1CCc2ccc(OCCCCN3CCN(c4cccc(Cl)c4Cl)CC3)cc2N1 [Example 11, aripiprazole]	0.03%
O=C1CCc2ccc(OCCCCN3CCN(c4cccc(Cl)c4Cl)CC3)cc2N1 [Example 3, aripiprazole]	0.02%
O=C1CCc2ccc(OCCCCN3CCN(c4cccc(Cl)c4Cl)CC3)cc2N1 [Example 5, aripiprazole]	0.04%
O=C1CCc2ccc(OCCCCN3CCN(c4cccc(Cl)c4Cl)CC3)cc2N1 [Example 6, aripiprazole]	0.04%
O=C1CCc2ccc(OCCCCN3CCN(c4cccc(Cl)c4Cl)CC3)cc2N1 [Example 7, aripiprazole]	0.03%

Continued, values first:

Moisture Content After 24 hrs (%)	Structure (SMILES)
3.28%	O=C1CCc2ccc(OCCCCN3CCN(c4cccc(Cl)c4Cl)CC3)cc2N1 [Reference Example 1, aripiprazole]
0.03%	O=C1CCc2ccc(OCCCCN3CCN(c4cccc(Cl)c4Cl)CC3)cc2N1 [Example 12, aripiprazole]
0.09%	O=C1CCc2ccc(OCCCCN3CCN(c4cccc(Cl)c4Cl)CC3)cc2N1 [Example 14, aripiprazole]
1.78%	O=C1CCc2ccc(OCCCCN3CCN(c4cccc(Cl)c4Cl)CC3)cc2N1 [Reference Example 2, aripiprazole]
0.03%	O=C1CCc2ccc(OCCCCN3CCN(c4cccc(Cl)c4Cl)CC3)cc2N1 [Example 13, aripiprazole]
0.04%	O=C1CCc2ccc(OCCCCN3CCN(c4cccc(Cl)c4Cl)CC3)cc2N1 [Example 15, aripiprazole]

Same assay, conditions: before exposure to 60° C./100% humidity

Structure (SMILES)	Initial Moisture Content (%)
O=C1CCc2ccc(OCCCCN3CCN(c4cccc(Cl)c4Cl)CC3)cc2N1 [Example 10, aripiprazole]	0.05%
O=C1CCc2ccc(OCCCCN3CCN(c4cccc(Cl)c4Cl)CC3)cc2N1 [Example 9, aripiprazole]	0.03%
O=C1CCc2ccc(OCCCCN3CCN(c4cccc(Cl)c4Cl)CC3)cc2N1 [Example 8, aripiprazole]	0.04%
O=C1CCc2ccc(OCCCCN3CCN(c4cccc(Cl)c4Cl)CC3)cc2N1 [Example 4, aripiprazole]	0.02%
O=C1CCc2ccc(OCCCCN3CCN(c4cccc(Cl)c4Cl)CC3)cc2N1 [Example 2, aripiprazole]	0.04%
O=C1CCc2ccc(OCCCCN3CCN(c4cccc(Cl)c4Cl)CC3)cc2N1 [Example 11, aripiprazole]	0.03%
O=C1CCc2ccc(OCCCCN3CCN(c4cccc(Cl)c4Cl)CC3)cc2N1 [Example 3, aripiprazole]	0.02%
O=C1CCc2ccc(OCCCCN3CCN(c4cccc(Cl)c4Cl)CC3)cc2N1 [Example 5, aripiprazole]	0.04%
O=C1CCc2ccc(OCCCCN3CCN(c4cccc(Cl)c4Cl)CC3)cc2N1 [Example 6, aripiprazole]	0.04%
O=C1CCc2ccc(OCCCCN3CCN(c4cccc(Cl)c4Cl)CC3)cc2N1 [Example 7, aripiprazole]	0.04%

Second part, the compound after the results:

Initial Moisture Content (%)	Structure (SMILES)
0.04%	O=C1CCc2ccc(OCCCCN3CCN(c4cccc(Cl)c4Cl)CC3)cc2N1 [Reference Example 1, aripiprazole]
0.04%	O=C1CCc2ccc(OCCCCN3CCN(c4cccc(Cl)c4Cl)CC3)cc2N1 [Example 12, aripiprazole]
0.06%	O=C1CCc2ccc(OCCCCN3CCN(c4cccc(Cl)c4Cl)CC3)cc2N1 [Example 14, aripiprazole]
0.04%	O=C1CCc2ccc(OCCCCN3CCN(c4cccc(Cl)c4Cl)CC3)cc2N1 [Reference Example 2, aripiprazole]
0.04%	O=C1CCc2ccc(OCCCCN3CCN(c4cccc(Cl)c4Cl)CC3)cc2N1 [Example 13, aripiprazole]
0.04%	O=C1CCc2ccc(OCCCCN3CCN(c4cccc(Cl)c4Cl)CC3)cc2N1 [Example 15, aripiprazole]

Same assay, conditions: left for 24 hours in a dessicator set at humidity 100%, temperature 60° C.

Structure (SMILES)	hygroscopicity (water content after exposure)
O=C1CCc2ccc(OCCCCN3CCN(c4cccc(Cl)c4Cl)CC3)cc2N1 [Example 10, aripiprazole]	no more than 0.4%
O=C1CCc2ccc(OCCCCN3CCN(c4cccc(Cl)c4Cl)CC3)cc2N1 [Example 9, aripiprazole]	≤ 0.4%
O=C1CCc2ccc(OCCCCN3CCN(c4cccc(Cl)c4Cl)CC3)cc2N1 [Example 8, aripiprazole]	≤ 0.4%
O=C1CCc2ccc(OCCCCN3CCN(c4cccc(Cl)c4Cl)CC3)cc2N1 [Example 4, aripiprazole]	≤ 0.4%
O=C1CCc2ccc(OCCCCN3CCN(c4cccc(Cl)c4Cl)CC3)cc2N1 [Example 2, aripiprazole]	≤ 0.4%
O=C1CCc2ccc(OCCCCN3CCN(c4cccc(Cl)c4Cl)CC3)cc2N1 [Example 11, aripiprazole]	≤ 0.4%
O=C1CCc2ccc(OCCCCN3CCN(c4cccc(Cl)c4Cl)CC3)cc2N1 [Example 3, aripiprazole]	≤ 0.4%
O=C1CCc2ccc(OCCCCN3CCN(c4cccc(Cl)c4Cl)CC3)cc2N1 [Anhydrous Aripiprazole Crystals B, aripiprazole]	≤ 0.4%
O=C1CCc2ccc(OCCCCN3CCN(c4cccc(Cl)c4Cl)CC3)cc2N1 [Example 5, aripiprazole]	≤ 0.4%
O=C1CCc2ccc(OCCCCN3CCN(c4cccc(Cl)c4Cl)CC3)cc2N1 [Example 6, aripiprazole]	≤ 0.4%
O=C1CCc2ccc(OCCCCN3CCN(c4cccc(Cl)c4Cl)CC3)cc2N1 [Example 7, aripiprazole]	≤ 0.4%

Second part, the compound after the results:

hygroscopicity (water content after exposure)	Structure (SMILES)
3.28%	O=C1CCc2ccc(OCCCCN3CCN(c4cccc(Cl)c4Cl)CC3)cc2N1 [Reference Example 1, aripiprazole]
≤ 0.4%	O=C1CCc2ccc(OCCCCN3CCN(c4cccc(Cl)c4Cl)CC3)cc2N1 [Example 12, aripiprazole]
≤ 0.4%	O=C1CCc2ccc(OCCCCN3CCN(c4cccc(Cl)c4Cl)CC3)cc2N1 [Example 14, aripiprazole]
1.78%	O=C1CCc2ccc(OCCCCN3CCN(c4cccc(Cl)c4Cl)CC3)cc2N1 [Reference Example 2, aripiprazole]
≤ 0.4%	O=C1CCc2ccc(OCCCCN3CCN(c4cccc(Cl)c4Cl)CC3)cc2N1 [Example 13, aripiprazole]
≤ 0.4%	O=C1CCc2ccc(OCCCCN3CCN(c4cccc(Cl)c4Cl)CC3)cc2N1 [Example 15, aripiprazole]
